Assay type in all cases: functional
The test system of assay [1] is MGC-803. Put plainly: Cell cycle arrest in human MGC803 cells assessed as accumulation at G1-phase at 0.2 uM measured after 24 hrs by propidium iodide staining based flow cytometry (reference value: 45%). (In general: Flow cytometry measures light scatter and fluorescence of single cells or particles in a stream.)
The subject of assay [2] is MGC-803. The experiment in a line: Cell cycle arrest in human MGC803 cells assessed as accumulation at G1-phase at 0.5 uM measured after 24 hrs by propidium iodide staining based flow cytometry (reference value: 45%).
In assay [3] the test system is MGC-803. The experiment in a line: Induction of apoptosis in human MGC803 cells assessed as late apoptotic cells at 0.2 uM measured after 48 hrs FITC-A/PE-A staining based flow cytometry (reference value: 0.9 to 2.18%).
Assay [4] has as its system MGC-803. Put plainly: Induction of apoptosis in human MGC803 cells assessed as necrotic cells at 0.2 uM measured after 48 hrs FITC-A/PE-A staining based flow cytometry (reference value: 0.9 to 2.18%).
The test system of assay [5] is MGC-803. The experiment in a line: Induction of apoptosis in human MGC803 cells assessed as necrotic cells at 0.5 uM measured after 48 hrs FITC-A/PE-A staining based flow cytometry (reference value: 0.9 to 2.18%).
Assay [6] has as its system MGC-803. Put plainly: Induction of apoptosis in human MGC803 cells assessed as early apoptotic cells at 1 uM measured after 48 hrs FITC-A/PE-A staining based flow cytometry (reference value: 0.59 to 3.54%).
In assay [7] the test system is AGS. The experiment in a line: Induction of apoptosis in human AGS cells assessed as late apoptotic cells at 0.2 uM measured after 48 hrs FITC-A/PE-A staining based flow cytometry (reference value: 1.89 to 3.49%).
In assay [8] the test system is AGS. The experiment in a line: Induction of apoptosis in human AGS cells assessed as necrotic cells at 0.2 uM measured after 48 hrs FITC-A/PE-A staining based flow cytometry (reference value: 1.35 to 2.69%).
Assay [9] has as its system AGS. The experiment in a line: Induction of apoptosis in human AGS cells assessed as viable cells at 1 uM measured after 48 hrs FITC-A/PE-A staining based flow cytometry (reference value: 92.05 to 93.85%). The settings on record: read-out: Activity.
Assay [10] concerns AGS. The experiment in a line: Induction of apoptosis in human AGS cells assessed as early apoptotic cells at 1 uM measured after 48 hrs FITC-A/PE-A staining based flow cytometry (reference value: 1.77 to 2.91%).
In assay [11] the test system is AGS. Put plainly: Induction of apoptosis in human AGS cells assessed as necrotic cells at 1 uM measured after 48 hrs FITC-A/PE-A staining based flow cytometry (reference value: 1.35 to 2.69%).
Assay [12] relates to MGC-803. The experiment in a line: Induction of apoptosis in human MGC803 cells assessed as late apoptotic cells at 5 uM measured after 48 hrs FITC-A/PE-A staining based flow cytometry (reference value: 0.67 to 0.82%).
Assay [13] relates to MGC-803. Put plainly: Induction of apoptosis in human MGC803 cells assessed as necrotic cells at 5 uM measured after 48 hrs FITC-A/PE-A staining based flow cytometry (reference value: 0.9 to 2.18%).

Molecules are shown by their SMILES.

For `CC[C@H](C)/C=C/C1=CC2=C(Cl)C(=O)[C@@]3(C)OC(=O)C(C(=O)[C@@H](C)[C@@H](C)O)=C3C2=CN1C/C=C(\C)CCC=C(C)C`, the Activity with MGC-803 [1] came to 48%; in the assay on MGC-803 [2], 48%; with MGC-803 [3] it was 2.23%; in the assay on MGC-803 [4], 4.06%; with MGC-803 [5] it was 3.23%; in the assay with MGC-803 [6], 4.16%. The Activity with AGS [7] came to 2.69%; with AGS [8] it was 1.37%; in the assay on AGS [10], 16.5%; with AGS [11], 3.36%; with MGC-803 [12], 68.63%; in the assay with MGC-803 [13] it was 5.03%. The viability at 1 µM in the assay on AGS [9] amounted to 45%.

(Values after ChEMBL document CHEMBL4610092, “Cytotoxic Nitrogenated Azaphilones from the Deep-Sea-Derived Fungus Chaetomium globosum MP4-S01-7” (J Nat Prod, 2020).)
